What was measured:
[1] = tested on: anterograde transport of dynein-GFP in axons of primary hippocampal neurons; experiment: Slow axonal transport photobleaching assay (dynein-GFP midpoint displacement); assay type: cell-based, mouse; conditions: for mean velocity of dynein-GFP displacement / mean velocity of dynein-GFP: 3 cultures; for mean velocity of dynein-GFP: 500 ng peptide complexed with Chariot reagent, pre-treated 45–60 min; for mean velocity of dynein-GFP / kymographs with no or retrograde bias: n = 27 (control) and 29 (DIC1a) axons
Experimental: Primary hippocampal neurons from dynein-GFP mice were cultured for 8–10 DIV in 900 μm microfluidic devices in order to image single axons of known polarity. Post bleach motility was imaged for 60 s at 0.5 fps. A line scan was made for every frame of the time series, then movement of the photo-protected dynein-GFP pool was quantified by defining retrograde and anterograde edges at the half-maximal fluorescence value and tracking the displacement of the midpoint (Figure 6B). The peak of fluorescence intensity decreased with time as the dynein-GFP pool shifted in both anterograde and retrograde directions. However, the relative midpoint could be seen moving with a clear bias in the anterograde direction for several seconds (Figure 6C), particularly when overlaid onto the more standard kymograph representation of axonal transport (Figure 6D). […] By fitting a linear regression to each relative midpoint position over time, we observed anterograde velocities ranging from 0.01 to 0.1 μm/s. However, ∼80% of events were in the 0.01 to 0.05 μm/s range or approximately 1–5 mm a day. All net anterograde velocities were consistent with known speeds of slow axonal transport of cytoplasmic dynein in vivo ([Dillman et al., 1996a], [Dillman et al., 1996b]).
First, we tested whether the anterograde transport of dynein was microtubule dependent, using nocodazole (final concentration 30 μM) to depolymerize microtubules. Every viable isolated axon (see Experimental Procedures) within the microgrooves of the chamber was imaged following the bleaching protocol described above. The relative position of the midpoint for each kymograph was calculated (see Figure 7A for examples) and the mean midpoint displacement ± SEM was plotted for all axons (Figure 7B). […] To establish a mean velocity for dynein-GFP, we fitted each midpoint shift with a linear regression.
To directly test our hypothesis that interactions between dynein and kinesin-1 are required for the anterograde transport of dynein in the axon, we designed a peptide to block the interaction between DIC1 and KLC. We chose a 19-amino-acid-long sequence centered on the tryptophan in WD1 of DIC1a. […] Hippocampal neuronal cultures were pre-treated for 45–60 min with either DIC1a or control peptide, complexed with Chariot reagent for delivery across the plasma membrane. […] Consequently, the anterograde transport of dynein-GFP in the axon is critically dependent on the interaction between dynein subunit DIC1a and the KLCs of kinesin-1.
Live cell imaging of hippocampal cultures was performed in Hibernate E low fluorescence medium in a humidified temperature controlled (37°C) live cell chamber, on an Ultraview Vox (PerkinElmer) dual-imaging system mounted on an inverted Nikon Ti microscope with either 100× or 60× apochromat 1.49 NA oil-immersion objectives (Nikon), fully controlled by Volocity software (PerkinElmer). FRAP and slow axonal transport imaging used the spinning-disk confocal with an Ultraview Photokinesis unit for bleaching and a C9100-50 EM-CCD (Hamamatsu) camera. Near-TIRF imaging used the Nikon TIRF system with an EM-CCD C9100-13 camera (Hamamatsu). Image analysis was performed in FIJI ([Schindelin et al., 2012]) with follow up analysis in R (RStudio). Specifics for each experiment are listed in the Supplemental Experimental Procedures. […]
Slow axonal transport imaging and drug treatments
Axons were imaged with a 100X objective (Nikon). Acquisition speed was 1 frame every two seconds.
For Nocodazole and Taxol drug treatments, […] and 200 nM respective final concentrations were added
to each well of the microfluidic chamber in imaging media (Hibernate E Low Fluorescence media) 45-60
minutes prior to imaging, with hydrostatic pressure across the microgrooves of the microfluidic device to
ensure drugs reached the axons within the grooves.
Peptides were supplied by GenScript, and sequences are VCFYLLLQTWVFPYTHDLH and
LVQPLHFLTWDTCYFHYLV for Control and DIC1a-WD1 peptides respectively. […]

KLC1TPR = experiment: Fluorescence polarization competition assay with TAMRA-labeled WD1pept; assay type: binding; conditions: 300 nM TAMRA-DICWD1 and 25 µM KLC TPR (approx. 70% saturation), increasing unlabeled peptide, Figure S3D; typically in triplicate
Experimental: Measurements were performed as previously described ([Pernigo et al., 2013]) with modifications as listed in Supplemental Experimental Procedures. […]
Log unlabelled peptide [nM]
Figure S3. Related to Figure 3.
(A-C) Isoforms of the mouse cytoplasmic dynein intermediate chain, based on data from (Kuta et al., 2010). The splice forms of DIC1 (A) and DIC2 (B) from the genes Dync1i1 and Dync1i2 respectively, relative to the longest isoform of each with key structural elements indicated: coiled coil required for NudE and p150 binding (McKenney et al., 2011; Nyarko et al., 2012); binding sites of the dynein light chains Tctex (Mok et al., 2001), LC8 (Lo et al., 2001) and Roadblock (Susalka et al., 2002); WD repeats 1-7 of the WD40 domain. Sequence alignments of all DIC isoforms centred on the two alternatively spliced regions: AS Loop 1 and AS Loop 2 (C). […]
(D) In a fluorescence polarization competition assay, TAMRA-labeled WD1pept bound to KLC1TPR is competed off with both unlabeled SKIPWD (with a single tryptophan motif) or a longer peptide encompassing both motifs (SKIPWDWE). […]
Fluorescence polarization measurements […]
[…] All fluorescence polarization (FP) measurements were carried out on a BMG Labtech PolarStar Omega plate reader at 20 °C by incubating 300 nM TAMRA-labeled peptides with His6-tagged KLC2TPR at increasing concentrations in 25 mM Hepes pH 7.5, 150 mM NaCl, 5 mM β-mercaptoethanol. […]

EB3 comets in the axon = experiment: EB3-mCherry comet density in axons; assay type: cell-based, mouse; conditions: taxol 200 nM, 45-60 min pre-treatment, mean; DMSO control 0.12; p = 0.008
Experimental: Figure S5. Related to Figure 7.
The slow anterograde transport of dynein in the axon is not dependent on dynamic microtubules.
(A) Taxol treatment reduces the density of EB3 comets in the axon. Example kymographs (left) and quantification (right) of
EB3-mCherry comet density in DMSO control and taxol treated axons. Pre-treatment with taxol (200 nM final concentration) for
45-60 minutes prior to imaging reduces the density of EB3 comets in the axon from 0.12 to 0.03 comets/µm/min. Heavy line =
mean, box = sem, grey dots = individual axons. Axons were imaged at 1 frame per second for 3 minutes using live cell spinning
disk confocal microscopy. […]
neurons showing relative positions of anterograde and retrograde intercept (blue) and the calculated midpoint displacement […]
spots are the velocities for each measured kymograph with colour indicating the overall direction of the midpoint displacement. […]
Taxol mean velocity 0.020±0.004 µm/s. p value calculated by a two-sample t-test. […]
Cells were imaged with 60X objective with near-TIRF illumination to eliminate excessive fluorescence […]
every ten minutes, with stage position controlled by Velocity software. For quantification, a threshold was […]
the movie and integrated density of each neurite was measured over time. […]
to each well of the microfluidic chamber in imaging media (Hibernate E Low Fluorescence media) 45-60 […]

[2] = 500 ng peptide with Chariot reagent, mean ± SEM
[3] = 500 ng peptide with Chariot reagent

With `COC(=O)Nc1nc2ccc(C(=O)c3cccs3)cc2[nH]1` [Nocodazole, nocodazole] the “net motility / anterograde bias” value ([1]; nocodazole, final concentration 30 μM, Figures 7A and 7B) was “abrogated the anterograde bias in transport seen in DMSO control neurons, with no net motility in either the anterograde or retrograde direction” and the “mean velocity of dynein-GFP displacement” value ([1]; nocodazole, final concentration 30 μM, linear regression, mean ± SEM, n = 22 axons, DMSO control 0.018 ± 0.005 μm/s) was “–0.001 ± 0.005 μm/s”.

“STNLEWDDSAI [SKIPWD, unlabeled SKIP peptide with a single tryptophan motif]” was tested, and the “competition of WD1pept” value (KLC1TPR) was “compete off WD1pept in a concentration dependent manner”.

For `CC(=O)O[C@H]1C(=O)[C@@]2(C)[C@H]([C@H](OC(=O)c3ccccc3)[C@]3(O)C[C@H](OC(=O)[C@H](O)[C@@H](NC(=O)c4ccccc4)c4ccccc4)C(C)=C1C3(C)C)[C@]1(OC(C)=O)CO[C@@H]1C[C@@H]2O` [Taxol, taxol], the “mean velocity of dynein-GFP displacement” value ([1]; taxol 200 nM, 45-60 min pre-treatment, mean ± sem, n = 39 axons, DMSO 0.023±0.005 µm/s, p = 0.6 two-sample t-test) was 0.020±0.004 µm/s, the “inhibition of anterograde bias of dynein transport” value ([1]; taxol 200 nM, Figures S5B–S5D) was “no inhibition in the anterograde bias of dynein transport” and the “density of EB3 comets in the axon” value (EB3 comets in the axon) was 0.03 comets/µm/min.

VCFYLLLQTWVFPYTHDLH [control peptide] was tested, and the “mean velocity of dynein-GFP” value ([1]; all kymographs, mean ± SEM) was 0.029 ± 0.005 μm/s, the “mean velocity of anterograde only kymographs” value [1, 2] was 0.036 ± 0.004 μm/s and the “kymographs with no or retrograde bias” value [1, 3] was 15%. The “kymographs with anterograde velocity over 0.05 μm/s” value ([1]; 500 ng peptide with Chariot reagent, n = 27 axons (control)) was 22%.

With “STNLEWDDSAIAPSSEDYDFGDVFPAVPSTPR VPSTDWEDGDL [SKIPWDWE, longer SKIP peptide encompassing both motifs]” the “competition of WD1pept” value (KLC1TPR) was “longer and higher affinity SKIPWDWE peptide doing so more efficiently”.

In the case of LVQPLHFLTWDTCYFHYLV [DIC1a peptide], the “mean velocity of dynein-GFP” value ([1]; all kymographs, mean ± SEM) is reported as 0.012 ± 0.005 μm/s, the “anterograde bias of dynein-GFP transport” value ([1]; 500 ng peptide with Chariot reagent, Figure 7E) is reported as “substantial reduction in the anterograde bias of dynein-GFP transport” and the “reduction of mean dynein-GFP velocity versus control peptide” value ([1]; 500 ng peptide with Chariot reagent, all kymographs) is reported as “over 50%”. The “mean velocity of anterograde only kymographs” value [1, 2] was 0.029 ± 0.003 μm/s, the “kymographs with no or retrograde bias” value [1, 3] was 38% and the “kymographs showing anterograde velocities over 0.05 μm/s” value ([1]; 500 ng peptide with Chariot reagent, n = 29 axons) was “complete loss”.
